The text below walks through data of patent US10829499B2, “Tetracyclic heterocycle compounds useful as HIV integrase inhibitors” (MERCK SHARP & DOHME CORP., priority 2016, dated 2020).

Where two headings read alike, the source gives them in different places.

This test relates to HIV-1 (NL4-3 strain). The experiment in a line: Assay for Inhibition of HIV Replication (kinetic assay, MT4-gag-GFP reporter cell line; VIKING). The class given is cell-based. As for the experimental part:
This assay is a kinetic assay that employs a reporter cell line (MT4-gag-GFP) to quantify the number of new cells infected in each round of replication.
MT4-GFP cells (250,000 cells/ml) were bulk-infected with HIV-1 (NL4-3 strain) at low multiplicity of infection (MOI) in RPMI cell culture medium+10% FBS for 24 hours. Cells were then washed once in RPMI cell culture medium+10% FBS and resuspended in RPMI cell culture medium+0% or 10% or 100% normal human serum (NHS). Test compounds were serial-diluted in DMSO on an ECHO® liquid handler. The infected MT4-GFP cells were added to a 384-well poly-D-lysine coated black plate with clear bottom in which the diluted test compounds were placed. The cells were seeded at 8,000 cells per well and the final DMSO concentration was 0.4%. The infected cells (Green GFP cells) were quantified at both 24 and 48 hours post incubation using Acumen eX3. Viral reproductive ratio (R0) was determined using the number of infected cells at 48 hours divided by the number of infected cells at 24 hours. Percent viral growth inhibition was calculated by [1-(R-Rtripledrug),/(RDMSO-Rtripledrug)]*100. Compound potency IP or IC50 was determined by a 4-parameter dose response curve analysis. In vitro potency in the cell-based assay in the absence of normal human serum (NHS) and the presence of 100% NHS.

[1] abbreviates: MT4-GFP cells infected with HIV-1 NL4-3, 0% normal human serum (NHS), read-out: VIKING IP50 (nM) with 0% NHS.
Setting [2] is: MT4-GFP cells infected with HIV-1 NL4-3, 100% normal human serum (NHS), read-out: VIKING IP50 (nM) with 100% NHS.
Setting [3] is: Human immunodeficiency virus 1, NL43, MT4-GFP cells infected with HIV-1 NL4-3, 0% normal human serum (NHS), read-out: VIKING IP50 (nM) with 0% NHS.
The mark [4] stands for this setting: Human immunodeficiency virus 1, NL43, MT4-GFP cells infected with HIV-1 NL4-3, 100% normal human serum (NHS), read-out: VIKING IP50 (nM) with 100% NHS.

For the molecule `C[C@H]1CCOC2C3CCc4c(C(=O)NCc5ccc(F)cc5F)c(=O)c(O)c(n43)C(=O)N21` (single isomer, unassigned) [Compound 62], the IC50 under setting [1] worked out at 0.83 nM and the IC50 under setting [2] was 528 nM.

With `C[C@H]1CCOC2C3CCc4c(C(=O)NCc5ccc(F)cc5F)c(=O)c(O)c(n43)C(=O)N21` (single isomer, unassigned) [Compound 63], the IC50 under setting [1] was 3.09 nM and the IC50 under setting [2] turned out to be 127 nM.

For the molecule `O=C(NCc1cccc(Cl)c1F)c1c2n3c(c(O)c1=O)C(=O)N1CCCCOC1C3CC2` (single isomer, unassigned) [Compound 65], the IC50 under setting [1] turned out to be 0.939 nM and the IC50 under setting [2] came to 6680 nM.

As to `O=C(NCc1cccc(Cl)c1F)c1c2n3c(c(O)c1=O)C(=O)N1CCCCOC1C3CC2` (single isomer, unassigned) [Compound 66], the IC50 runs as follows: under setting [1], 1.48 nM; under setting [2], 834 nM.

On to `O=C(NCc1cccc(Cl)c1F)c1c2n3c(c(O)c1=O)C(=O)N1CCCCOC1C3CC2` (single isomer, unassigned) [Compound 67], for which the IC50 runs as follows: under setting [1], 0.577 nM; under setting [2], 1470 nM.

On to `O=C(NCc1ccc(F)cc1F)c1c2n3c(c(O)c1=O)C(=O)N1CCCCOC1C3CC2` (single isomer, unassigned) [Compound 69], for which the IC50 is 1.36 nM under setting [3] and 349 nM under setting [2].

As for `O=C(NCc1ccc(F)cc1F)c1c2n3c(c(O)c1=O)C(=O)N1CCCCOC1C3CC2` (single isomer, unassigned) [Compound 70], the IC50 reads like this: under setting [1], 1.12 nM; under setting [2], 3920 nM.

`O=C(NCc1ccc(F)cc1F)c1c2n3c(c(O)c1=O)C(=O)N1CCCCOC1C3CC2` (single isomer, unassigned) [Compound 71]: the IC50 by setting is: under setting [1], 1.25 nM; under setting [2], 30.7 nM.

Turning to `COC1CC2C3OCCN3C(=O)c3c(O)c(=O)c(C(=O)NCc4ccc(F)cc4F)c1n32` (single isomer, unassigned) [Compound 73], the IC50 is, setting by setting: under setting [1], 0.679 nM; under setting [2], 49.4 nM.

Take `COC1CC2C3OCCN3C(=O)c3c(O)c(=O)c(C(=O)NCc4ccc(F)cc4F)c1n32` (single isomer, unassigned) [Compound 74]: the IC50 turned out to be 2.19 nM under setting [1] and 181 nM under setting [2].

Take `COC1CC2C3OCCN3C(=O)c3c(O)c(=O)c(C(=O)NCc4ccc(F)cc4F)c1n32` (single isomer, unassigned) [Compound 75]: the IC50 is, setting by setting: under setting [1], 4.99 nM; under setting [2], 6180 nM.

For the molecule `COC1CC2C3OCCN3C(=O)c3c(O)c(=O)c(C(=O)NCc4ccc(F)cc4F)c1n32` (single isomer, unassigned) [Compound 76], the IC50 is, setting by setting: under setting [1], 1.01 nM; under setting [2], 17.8 nM.

In the case of `COC1CC2C3OCCN3C(=O)c3c(O)c(=O)c(C(=O)NCc4ccc(F)cc4F)c1n32` (single isomer, unassigned) [Compound 77], the IC50 under setting [1] came out at 1.56 nM and the IC50 under setting [2] stood at 2160 nM.

As for `COC1CC2C3OCCN3C(=O)c3c(O)c(=O)c(C(=O)NCc4ccc(F)cc4F)c1n32` (single isomer, unassigned) [Compound 78], the IC50 came out at 2.12 nM under setting [1] and 534 nM under setting [2].

Turning to `COC1CC2C3OCCN3C(=O)c3c(O)c(=O)c(C(=O)NCc4ccc(F)cc4F)c1n32` (single isomer, unassigned) [Compound 79], the IC50 is, setting by setting: under setting [1], 1.79 nM; under setting [2], 135 nM.

As for `CN1CCCN2C(=O)c3c(O)c(=O)c(C(=O)NCc4ccc(F)cc4F)c4n3C(CC4)C12` (single isomer, unassigned) [Compound 81], the IC50 came to 1.15 nM under setting [3] and 24.2 nM under setting [2].

`CN1CCCN2C(=O)c3c(O)c(=O)c(C(=O)NCc4ccc(F)cc4F)c4n3C(CC4)C12` (single isomer, unassigned) [Compound 82]: the IC50 is 1.17 nM under setting [1] and 550 nM under setting [2].

On to `CN1CCCN2C(=O)c3c(O)c(=O)c(C(=O)NCc4ccc(F)cc4F)c4n3C(CC4)C12` (single isomer, unassigned) [Compound 83], for which the IC50 worked out at 0.857 nM under setting [1] and 16.8 nM under setting [2].

In the case of `CN1CCCN2C(=O)c3c(O)c(=O)c(C(=O)NCc4cccc(Cl)c4F)c4n3C(CC4)C12` (single isomer, unassigned) [Compound 84], the IC50 runs as follows: under setting [1], 0.762 nM; under setting [2], 37.5 nM.

Regarding `CN1CCCN2C(=O)c3c(O)c(=O)c(C(=O)NCc4cccc(Cl)c4F)c4n3C(CC4)C12` (single isomer, unassigned) [Compound 85], the IC50 under setting [1] was 0.703 nM and the IC50 under setting [2] turned out to be 17.8 nM.

As for `CN1CCCN2C(=O)c3c(O)c(=O)c(C(=O)NCc4cccc(Cl)c4F)c4n3C(CC4)C12` (single isomer, unassigned) [Compound 86], the IC50 under setting [1] worked out at 0.426 nM and the IC50 under setting [2] was determined as 9.17 nM.

As to `CN1CCCN2C(=O)c3c(O)c(=O)c(C(=O)NCc4cccc(Cl)c4F)c4n3C(CC4)C12` (single isomer, unassigned) [Compound 87], the IC50 is, setting by setting: under setting [1], 0.875 nM; under setting [2], 1000 nM.

Turning to `C[C@@H]1COC2C3CCc4c(C(=O)NCc5ccc(F)cc5F)c(=O)c(O)c(n43)C(=O)N21` (stereo partly drawn) [Compound 32], the IC50 was found to be 0.671 nM under setting [3] and 101 nM under setting [4].

Take `C[C@@H]1COC2C3CCc4c(C(=O)NCc5cccc(Cl)c5F)c(=O)c(O)c(n43)C(=O)N21` (stereo partly drawn) [Compound 35]: the IC50 reads like this: under setting [3], 0.733 nM; under setting [4], 88.7 nM.

For the molecule `C[C@@H]1CN2C(=O)c3c(O)c(=O)c(C(=O)NCc4cccc(Cl)c4F)c4n3C(CC4)C2O1` (stereo partly drawn) [Compound 38], the IC50 under setting [3] was found to be 0.543 nM and the IC50 under setting [4] stood at 46.4 nM.

As for `C[C@H]1CN2C(=O)c3c(O)c(=O)c(C(=O)NCc4cccc(Cl)c4F)c4n3C(CC4)C2O1` (stereo partly drawn) [Compound 42], the IC50 is, setting by setting: under setting [3], 1.38 nM; under setting [4], 1570 nM.

Take `O=C(NCc1cccc(Cl)c1F)c1c2n3c(c(O)c1=O)C(=O)N1CCCO[C@H]1[C@H]3CC2` [Compound 47]: the IC50 under setting [3] amounted to 2.39 nM and the IC50 under setting [4] was determined as 2680 nM.

As for `CN1CCCN2C(=O)c3c(O)c(=O)c(C(=O)NCc4ccc(F)cc4F)c4n3C(CC4)C12` (stereo not drawn) [Compound 80], the IC50 reads like this: under setting [3], 0.662 nM; under setting [4], 13.8 nM.

For the molecule `C[C@H]1CNC2C3CCc4c(C(=O)NCc5cccc(Cl)c5F)c(=O)c(O)c(n43)C(=O)N21` (stereo partly drawn) [Compound 88], the IC50 reads like this: under setting [3], 0.705 nM; under setting [4], 13.7 nM.

Take `C[C@H]1CNC2C3CCc4c(C(=O)NCc5cccc(Cl)c5F)c(=O)c(O)c(n43)C(=O)N21` (stereo partly drawn) [Compound 89]: the IC50 turned out to be 0.709 nM under setting [1] and 120 nM under setting [2].

As to `C[C@H]1CNC2C3CCc4c(C(=O)NCc5cccc(Cl)c5F)c(=O)c(O)c(n43)C(=O)N21` (stereo partly drawn) [Compound 90], the IC50 reads like this: under setting [1], 0.397 nM; under setting [2], 24.6 nM.

As for `C[C@H]1CN2C(=O)c3c(O)c(=O)c(C(=O)NCc4cccc(Cl)c4F)c4n3C(CC4)C2N1` (stereo partly drawn) [Compound 91], the IC50 was 1 nM under setting [1] and 464 nM under setting [2].

`C[C@H]1CN2C(=O)c3c(O)c(=O)c(C(=O)NCc4cccc(Cl)c4F)c4n3C(CC4)C2N1` (stereo partly drawn) [Compound 92]: the IC50 under setting [1] stood at 0.67 nM and the IC50 under setting [2] worked out at 8.12 nM.

As for `C[C@H]1CN2C(=O)c3c(O)c(=O)c(C(=O)NCc4cccc(Cl)c4F)c4n3C(CC4)C2N1` (stereo partly drawn) [Compound 93], the IC50 was determined as 49 nM under setting [4] and 1.14 nM under setting [1].

Consider `C[C@H]1CN2C(=O)c3c(O)c(=O)c(C(=O)NCc4cccc(Cl)c4F)c4n3C(CC4)C2N1` (stereo partly drawn) [Compound 94], for which the IC50 is, setting by setting: under setting [1], 0.503 nM; under setting [2], 14.5 nM.

Turning to `C[C@H]1CN2C(=O)c3c(O)c(=O)c(C(=O)NCc4ccc(F)cc4F)c4n3C(CC4)C2N1` (stereo partly drawn) [Compound 95], the IC50 runs as follows: under setting [3], 2.59 nM; under setting [4], 124 nM.

As for `C[C@H]1CN2C(=O)c3c(O)c(=O)c(C(=O)NCc4ccc(F)cc4F)c4n3C(CC4)C2N1` (stereo partly drawn) [Compound 96], the IC50 reads like this: under setting [1], 2.04 nM; under setting [2], 13.8 nM.

As for `C[C@H]1CN2C(=O)c3c(O)c(=O)c(C(=O)NCc4ccc(F)cc4F)c4n3C(CC4)C2N1` (stereo partly drawn) [Compound 97], the IC50 came to 4.3 nM under setting [1] and 48.3 nM under setting [2].

For the molecule `C[C@H]1CN2C(=O)c3c(O)c(=O)c(C(=O)NCc4ccc(F)cc4F)c4n3C(CC4)C2N1` (stereo partly drawn) [Compound 98], the IC50 under setting [1] stood at 1.48 nM and the IC50 under setting [2] was 16 nM.

With `C[C@H]1CNC2C3CCc4c(C(=O)NCc5ccc(F)cc5F)c(=O)c(O)c(n43)C(=O)N21` (stereo partly drawn) [Compound 99], the IC50 runs as follows: under setting [3], 2.28 nM; under setting [2], 19.2 nM.

For `C[C@H]1CNC2C3CCc4c(C(=O)NCc5ccc(F)cc5F)c(=O)c(O)c(n43)C(=O)N21` (stereo partly drawn) [Compound 100], the IC50 is, setting by setting: under setting [1], 1.94 nM; under setting [2], 56.5 nM.

Regarding `C[C@H]1CNC2C3CCc4c(C(=O)NCc5ccc(F)cc5F)c(=O)c(O)c(n43)C(=O)N21` (stereo partly drawn) [Compound 101], the IC50 reads like this: under setting [1], 1.99 nM; under setting [2], 23.4 nM.
